Consider 20 compounds from US20040186081A1, “Naaladase inhibitors for treating opioid tolerance” (Guilford Pharmaceuticals Inc., priority 2003, published 2004).

For test [1], the target named is T1, NAALADase (Homo sapiens, UniProt Q04609). Particulars: read-out: Km of NAALADase for NAAG; cited from earlier work.
The target of test [2] is mGluRII receptors (mGluR3) (Homo sapiens, UniProt Q14832). Particulars: read-out: EC50 as direct agonist at mGluRII receptors; cited from earlier work.
The conditions of test [3]: in vivo; cited from earlier work.
Test [4] relates to C57/BL mice. Put plainly: Acute effects in the tail-flick test (Experiment 2). In kind it is in vivo. How it is done: (§1) Male C57/BL mice (IMP, Lodz, Poland), 22-24 g of body weight were group-housed in the standard laboratory cages and kept in a temperature-controlled colony room (21+2° C.) with a 12-hr light/dark cycle (light on: 07:00, off: 19:00). Commercial food and tap water were available ad libitum. Each experimental group consisted of 7-28 mice per treatment. All mice were used only once.
(§2) The intensity of the heat stimulus was adjusted so that the baseline tail-flick latency was ˜3 s. […] Each response assessment consisted of two separate measurements taken at different portions of the tail (spaced by 1.5-2 cm) and separated by 15 s. The mean of these responses was used for subsequent comparisons.
On the technique in general: In hot-plate and tail-flick tests a longer latency is read as antinociception.

For test [5], the system named is C57/BL mice. The test can be described thus: animal or person. In kind it is in vivo. Particulars: for ED50: Mus musculus, sc. How it is done:
as §1, §2

Test [6] deals with over 100 different receptors, ion channels, transporters, and enzymes including NMDA, AMPA, metabotropic glutamate receptors and glutamate transporters. Particulars: cited from earlier work.
The target in test [7] is T1, NAALADase. The test can be described thus: In vitro inhibition of NAALADase activity. In kind it is biochemical. Particulars: read-out: IC50.

“Also recorded” adds a separate entry of the source. Peptide text beside a SMILES is read from it.

T1 sequence (Q04609 whole entry): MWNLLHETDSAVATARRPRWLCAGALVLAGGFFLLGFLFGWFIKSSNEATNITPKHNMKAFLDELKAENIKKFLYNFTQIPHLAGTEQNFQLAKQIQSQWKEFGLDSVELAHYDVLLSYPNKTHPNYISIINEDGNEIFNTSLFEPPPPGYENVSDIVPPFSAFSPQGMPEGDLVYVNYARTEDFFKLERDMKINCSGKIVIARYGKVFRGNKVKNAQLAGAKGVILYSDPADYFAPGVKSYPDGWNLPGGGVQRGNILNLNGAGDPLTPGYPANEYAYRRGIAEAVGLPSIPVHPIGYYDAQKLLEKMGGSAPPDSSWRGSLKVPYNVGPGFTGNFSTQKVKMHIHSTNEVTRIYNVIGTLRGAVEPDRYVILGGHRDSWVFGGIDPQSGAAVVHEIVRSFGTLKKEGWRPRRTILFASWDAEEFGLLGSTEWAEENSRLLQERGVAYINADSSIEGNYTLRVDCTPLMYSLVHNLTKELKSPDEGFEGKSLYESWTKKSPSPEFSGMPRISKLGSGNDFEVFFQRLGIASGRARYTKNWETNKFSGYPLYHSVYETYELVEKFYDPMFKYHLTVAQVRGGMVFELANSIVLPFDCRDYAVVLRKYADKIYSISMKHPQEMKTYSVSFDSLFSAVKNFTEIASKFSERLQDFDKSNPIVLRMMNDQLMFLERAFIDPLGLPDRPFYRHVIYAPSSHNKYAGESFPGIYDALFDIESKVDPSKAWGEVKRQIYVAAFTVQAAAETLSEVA
mGluRII receptors (mGluR3), sequence (Q14832 23-879): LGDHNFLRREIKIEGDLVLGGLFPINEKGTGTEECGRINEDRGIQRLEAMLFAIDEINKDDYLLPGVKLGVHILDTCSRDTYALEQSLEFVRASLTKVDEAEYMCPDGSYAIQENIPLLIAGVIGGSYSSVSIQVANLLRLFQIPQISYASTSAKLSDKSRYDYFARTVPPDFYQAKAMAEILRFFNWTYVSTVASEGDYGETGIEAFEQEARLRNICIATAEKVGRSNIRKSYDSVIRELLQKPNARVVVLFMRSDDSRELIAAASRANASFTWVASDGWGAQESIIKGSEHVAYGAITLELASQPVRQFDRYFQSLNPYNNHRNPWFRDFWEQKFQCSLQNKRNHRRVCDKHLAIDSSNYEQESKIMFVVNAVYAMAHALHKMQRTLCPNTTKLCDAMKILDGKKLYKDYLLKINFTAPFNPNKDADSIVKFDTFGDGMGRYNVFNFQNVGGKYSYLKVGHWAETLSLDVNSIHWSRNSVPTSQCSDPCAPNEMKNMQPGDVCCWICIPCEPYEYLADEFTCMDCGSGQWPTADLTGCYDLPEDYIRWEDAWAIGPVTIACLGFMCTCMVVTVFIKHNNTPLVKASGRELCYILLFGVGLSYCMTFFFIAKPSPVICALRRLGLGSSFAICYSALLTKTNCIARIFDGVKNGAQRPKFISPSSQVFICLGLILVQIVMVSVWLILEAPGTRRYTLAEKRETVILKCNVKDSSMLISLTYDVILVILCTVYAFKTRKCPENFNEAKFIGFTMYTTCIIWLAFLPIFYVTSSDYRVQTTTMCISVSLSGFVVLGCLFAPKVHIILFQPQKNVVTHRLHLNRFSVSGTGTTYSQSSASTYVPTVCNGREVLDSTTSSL

By Km is commonly meant the substrate concentration at which the rate is half of its maximum. Broadly, the EC50 is the concentration needed to bring the measured effect to its halfway point. In the case of `CC(=O)N[C@@H](CC(=O)O)C(=O)N[C@@H](CCC(=O)O)C(=O)O` [NAAG, N-acetyl-aspartyl-glutamate] (Ac-Asp-Glu-OH), on NAALADase [1], the Km was 0.54 µM. Also, the EC50 in test [2] is about 26000 nM. As for `NC1(C(=O)O)CCC2C(C(=O)O)C21` (single isomer, unassigned; (+)) [LY354740, (+)-2-aminobicyclo [3,1,0] hexane-2,6-dicarboxylic acid], in test [3], the “development of morphine tolerance” value was “inhibit the development of morphine tolerance”. By ED50 is commonly meant the dose at which the effect has come halfway, by size or by number of responders. As for `CN1CC[C@]23c4c5ccc(O)c4O[C@H]2[C@@H](O)C=C[C@H]3[C@H]1C5` [Morphine], the ED50 was 3 mg/kg in the test with C57/BL mice [4] (Mus musculus, sc, read-out: antinociceptive ED50 dose); 1.49 ± 0.26 mg/kg in the test with C57/BL mice [5] (24 h, read-out: Test #1 ED50 (morphine antinociceptive)); 8.85 ± 2.22 mg/kg in the test with C57/BL mice [5] (192 h, read-out: Test #2 ED50 (morphine antinociceptive)). Consider `CC12CC3CC(C)(C1)CC(N)(C3)C2` [Memantine, memantine], for which the “effect on the development of morphine tolerance” value with C57/BL mice [5] (mouse, in vivo) is reported as “produced an inhibition of morphine tolerance”. For `O=C(O)CCC(CP(=O)(O)O)C(=O)O` (centres unmarked) [2-PMPA, 2-phosphonomethyl pentanedioic acid], the “effect on antinociceptive effects of morphine” value with C57/BL mice [4] (100 mg/kg 2-PMPA i.p. 30 min before 1.5 or 3 mg/kg morphine s.c.) is recorded as “did not affect antinociceptive effects; also recorded: did not differ”. In addition, the “tail-flick responses (AUC) compared to placebo+placebo” value in the test on C57/BL mice [4] (100 mg/kg of 2-PMPA i.p. + placebo) is “did not affect tail-flick responses; also recorded: did not differ from placebo+placebo treatment”. Moreover, in test [6], the “affinity for over 100 different receptors, ion channels, transporters, and enzymes” value is listed as “no apparent affinity”. For the same compound, in the test on C57/BL mice [5] (2-PMPA 50 or 100 mg/kg given prior to each dose of morphine), the “effect on the development of morphine tolerance” value is “attenuated the development of morphine tolerance”. By IC50 is commonly meant the midpoint of a concentration-inhibition curve. As for `O=C(O)c1ccccc1-c1cccc(CC(CCCS)C(=O)O)c1` (centres unmarked) [3′-(2-carboxy-5-mercaptopentyl)-[1,1′-biphenyl]-2-carboxylic acid], on NAALADase [7], the IC50 came out at 184 nM. On to `COC(=O)c1ccccc1OCC(=O)NO` [2-Hydroxycarbamoylmethoxy-benzoic acid methyl ester], for which the IC50 at NAALADase [7] is at least 100000 nM. Take `O=C(O)C(CCCS)Oc1cccc(O)c1` (centres unmarked) [2-(3-hydroxyphenoxy)-5-mercapto-pentanoic acid]: the concentration for half-maximal inhibition (IC50) at NAALADase [7] came out at 846 nM. Still for that read-out and setting: for `O=C(O)c1ccc(Br)c(CS)c1` [4-bromo-3-(mercaptomethyl)-benzoic acid] the value was 3200 nM; for `CCCC(SCCCC(Cc1cccc(C(=O)O)c1)C(=O)O)C(=O)NO` (centres unmarked) [3-[2-Carboxy-5-(1-hydroxycarbamoyl-butylsulfanyl)-pentyl]-benzoic acid], 1530 nM. The same measure, in the same setting: then `CS(=O)(=O)c1ccc(CC(CCCS)C(=O)O)cc1` (stereo not drawn) [alpha-(3-mercaptopropyl)-4-(methylsulfonyl)-benzenepropanoic acid], with 211 nM. As for `O=C(O)c1ccc(OC(CCCS)C(=O)O)cc1` (centres unmarked) [4-(1-carboxy-4-mercaptobutoxy)-benzoic acid], the IC50 on NAALADase [7] came to 192 nM.

For `O=C(O)c1ccc(Cl)c(CC(CCCS)C(=O)O)c1` (stereo not drawn) [5-carboxy-2-chloro-alpha-(3-mercaptopropyl)-benzenepropanoic acid], the IC50 on NAALADase [7] is 2.09 nM. For the compound `O=C(CSCCCC(Cc1cccc(C(=O)O)c1)C(=O)O)NO` (centres unmarked) [3-(2-Carboxy-5-hydroxycarbamoylmethyl-sulfanyl-pentyl)-benzoic acid], the concentration for half-maximal inhibition (IC50) at NAALADase [7] worked out at 394 nM. On the same count and under the same terms, then `O=C(O)Cc1cccc(OC(CCCS)C(=O)O)c1` (centres unmarked) [3-(1-carboxy-4-mercaptobutoxy)-benzeneacetic acid], with 64 nM. Consider `O=C(O)c1ccc(-c2ccccc2)c(CC(CCCS)C(=O)O)c1` (centres unmarked) [2-(2-carboxy-5-mercaptopentyl)-[1,1′-biphenyl]-4-carboxylic acid], for which, at NAALADase [7], the IC50 was 19 nM. With `O=C(O)C(CCCS)Cc1ccc(-c2ccccc2)cc1` (stereo not drawn) [alpha-(3-mercaptopropyl)-4-phenyl-benzenepropanoic acid], the IC50 on NAALADase [7] amounted to 229 nM. Still for that read-out and setting: then `O=C(O)c1ccc([N+](=O)[O-])c(CC(CCCS)C(=O)O)c1` (stereo not drawn) [5-carboxy-alpha-(3-mercaptopropyl)-2-nitro-benzenepropanoic acid], with 8.25 nM.

Regarding `COc1cc(COc2cccc(CCS)c2C(=O)O)ccc1C(=O)O` [2-[(4-carboxy-3-methoxyphenyl)methoxy]-6-(2-mercaptoethyl)-benzoic acid], the IC50 at NAALADase [7] was 10.5 nM.

For the compound `COc1ccc(OC)c(CC(CCCS)C(=O)O)c1` (stereo not drawn) [alpha-(3-mercaptopropyl)-2,5-dimethoxy-benzenepropanoic acid], on NAALADase [7], the IC50 is 566 nM.
